Source: PMC12000433 (Scientific Reports, 2025)

Tests used:
[1] = test system: β1i/LMP2, β5i/LMP7 and β2i/PSMB10 in SK-N-MC^A*02:01 and other EwS cell lines; experiment: Western blot of immunoproteasome subunits in EwS cell lines; type: cell-based, human; conditions: IFN-γ 100U/ml, 24 h
[2] = test system: MHC class I on EwS cell lines; experiment: flow cytometry of MHC class I on EwS cell lines; type: cell-based, human; conditions: IFN-γ 100U/ml, 24 h; W6/32 and BB7.2 mAbs

Substance: IFN-γ: inflammatory cytokine used to treat EwS cell lines and tumors
- immunoproteasome subunit expression [1]: induced de novo expression of immunoproteasome subunits
- MHC class I expression [2]: induced MHC class I upregulation
